One assay has as its system eNOS-pThr495. The experiment in a line: eNOS-pThr495 protein levels in HAECs. It is filed as cell-based, human. The settings on record: HAECs with DL-Hcy 500 μmol/L and D-Glu 25 mmol/L 48 hrs; GFX 2 μmol/L 30 min; MDL 20 mmol/L 48 hrs; Adv-dnPKCβ2 200 MOI 72 hrs; siRNA 72 hrs. How it is done: (FIG. 7A). eNOS protein levels in mouse aorta of Cbs^−/+ mice (Left Panel) and HAECs (Right Panel). (FIG. 7B). eNOS-pThr497/495 protein levels in mouse aorta of Cbs^−/+ mice (Left Panel) and in HAECs (Right Panel). At the age of 8-week, Cbs^−/+ mice were fed with a high methionine diet (HM, methionine: 2% w/w) for 8 weeks, and/or injected with streptozotocin (STZ, i.p., 40 mg/kg) for 5 consecutive days starting from the first day of experiment. Mice fed with a control diet (CT, methionine: 0.37% w/w) and injected with vehicle (50 mmol/L citrate buffer) served as controls. Human aortic endothelial cells (HAECs, passage 8-9) were cultured in EC medium which contains 5 mmol/L D-glucose (D-Glu), treated with DL-homocysteine (DL-Hcy, 500 μmol/L) and/or D-Glu (25 mmol/L). (FIG. 7C). eNOS-pThr495 protein levels in HAECs. HAECs (passage 8-9) were cultured in EC medium which contains 5 mmol/L D-glucose (D-Glu), treated with DL-homocysteine (DL-Hcy, 500 μmol/L) and D-Glu (25 mmol/L for 48 hrs with or without non-specific PKC inhibitor GF109203X (GFX) (2 μmol/L, 30 min.); control adenoviruse (Ad-CT, 200 MOI, 72 hrs), dominant negative PKCβ2 adenovirus (Adv-dnPKCβ2, 200 MOI, 72 hrs); μ-calpain siRNA (μ-calpsiRNA, Santa Cruz #sc-29885, 72 hrs), or MDL ([…], 48 hrs, Sigma #M6690). (FIG. 7D). Transfection effect of Adv-dnPKCβ2in HAECs. Cultured HAECs (passage 8, 80% confluence) were treated with 12.5, 25, 50, 100 and 200 MOI Adv-dnPKCβ2 for 48 hrs. n=3, *p<0.05 vs control; †p<0.05 vs DL-Hcy-treated HAECs; ‡p<0.05 vs D-Glu-treated HAECs; #p<0.05 vs DL-Hcy/D-Glu-treated HAECs. Cbs, cystathionine β-synthase; eNOS, endothelial nitric oxide synthase; eNOS-pThr495/497, phosphorylation of eNOS at threonine 497 (mouse)/495 (human).
Human aortic endothelial cells (HAECs) were cultured in cell culture medium (M199, HyClone) as previously described (Wang et al., 1997, J Biol Chem 272:25380-25385). The HAECs were treated with DL-Hcy (200 or 500 μmol/L) and/or D-glucose (D-Glu, 25 mmol/L) for 24 or 48 hrs in the presence or absence of selected pharmacological inhibitors or siRNA or adenovirus.

Another assay has as its system aorta of db/db mice. The settings on record: supplementation, via the NO pathway (Seto et al., 2010); cited from earlier work.
The next assay relates to mouse thoracic aorta. The assay is described as follows: Endothelium-dependent vascular relaxation to ACh in aortic rings treated ex vivo (multiple-wire myograph). The settings on record: for endothelium-dependent vascular relaxation to ACh: aortic rings of HHcy/HG-Cbs−/+ mice preincubated 1 hr with antioxidant (PEG-SOD 150 U/mL, Tempol 1 mmol/L, apocynin 10 μmol/L); for endothelium-dependent vascular relaxation to ACh / aortic endothelium-dependent vascular relaxation to ACh: p<0.05; for aortic endothelium-dependent vascular relaxation to ACh: aortic rings of HHcy/HG-Cbs−/+ mice preincubated with calpain inhibitor 20 μmol/L for 1 hour.

The test system of the next assay is calpain. The experiment in a line: t-BOC calpain activity assay in intact HAECs. It is filed as cell-based, human. The following applies: HAECs treated with DL-Hcy 500 μmol/L and D-Glu 25 mmol/L; PEG-SOD 150 U/mL, 48 hrs. Here is the method: (FIG. 5A). In situ .O2^− production in aorta. (FIG. 5B). Nitrotyrosine (3-NT) levels. Aortic paraffin-cross sections (7 μm) from Cbs^−/+ mice were stained with 3-NT antibody and 3,3′-diaminobenzidine (DAB, brown). (FIG. 5C). Urinary 8-isoprostane levels. At the age of 8-week, Cbs^+/+ and Cbs^−/+ mice were fed with a high methionine diet (HM, methionine: 2% w/w) for 8 weeks, and/or injected with streptozotocin (STZ, i.p., 40 mg/kg) for 5 consecutive days starting from the first day of experiment. Mice fed with a control diet (CT, methionine: 0.37% w/w) and injected with vehicle (50 mM citrate buffer) served as controls. Aortic cryo-cross sections (30 μm) from Cbs^−/+ mice were stained with the superoxide marker dihydroethidium (DHE, 3 μmol/L, 30 mins.). Urine was collected from 24 hrs metabolic cage. (FIG. 5D). Endothelium-dependent vascular relaxation in HHcy/HG CBS^−/+ mouse aorta in the presence of antioxidants. Arterial rings were pre-contracted with phenylephrine (1 μmol/L) and examined for relaxation to cumulative additions of ACh in the aorta of STZ-treated Cbs^−/+ mice on HM diet. The arterial rings were preincubated with antioxidants polyethylene glycol superoxide dismutase (PEG-SOD, 150 U/mL, Sigma #S9549), Tempol (1 mmol/L, Sigma #176141), or apocynin (10 μmol/L, Sigma #W508454) for 1 hr. n=3-5. *p<0.05 vs vehicle-treated Cbs^−/+ mice on CT diet; †p<0.05 vs vehicle-treated Cbs^−/+ mice on HM diet; ‡p<0.05 vs STZ-treated Cbs^−/+ mice on CT diet; #p<0.05 vs STZ-treated Cbs^−/+ mice on HM diet. (FIG. 5E). […] Calpain activity was measured by the fluorescent substrate t-BOC-Leu-Met-CMAC (T-BOC, 10 μmol/L, 30 min) Human aortic endothelial cells (HAECs, passage 8-9) were cultured in EC medium which contains 5 mmol/L D-glucose (D-Glu), treated with DL-homocysteine (DL-Hcy, 500 μmol/L) and/or D-Glu (25 mmol/L) with or without […] (150 U/mL) or MDL28170 (MDL, 20 μmol/L) for 48 hrs, or CTsiRNA and μ-calpsiRNA for 72 hrs. […] Transfection effect of μ-calpsiRNA in HAECs was detected by Western blot after transfected with the siRNA for indicated time. […]

A further assay concerns NO production in HAECs. The experiment in a line: NO production in HAECs by DAF-FM staining. It is filed as cell-based, human. The settings on record: HAECs; L-NAME 100 μmol/L added in the last hour (negative control). Here is the method:
(§1) (FIG. 6A). Images of NO. Nitric oxide (NO) production in HAECs was measured by staining intact HAECs with NO marker DAF-FM. N^G-nitro-L-arginine methyl ester (L-NAME, 100 μmol/L, Sigma #N5751) was added in the last hour as a negative control. (FIG. 6B). Quantification of NO. (FIG. 6C). eNOS activity. Human aortic endothelial cells (HAECs) were cultured in EC medium which contains 5 mmol/L D-Glucose (D-Glu), and treated with DL-homocysteine (DL-Hcy, 500 μmol/L) and/or (D-Glu, 25 mmol) without or with MDL28170 (MDL) for 48 hrs, CTsiRNA or μ-calpsiRNA for 72 hrs. L-NAME (100 μmol/L) was added in the last hour. NO was measured by staining intact HAECs with NO marker (DAF-FM, 10 μmol/L, Sigma #D2321, 30 mins.). Endothelial nitric oxide synthase (eNOS) activity was assessed by measuring of ^3H-L-arginine conversion to ^3H-citrulline in intact HAECs. n=3, *p<0.05 vs control; †p<0.05 vs DL-Hcy-treated HAECs; ‡p<0.05 vs D-Glu-treated HAECs; #p<0.05 vs DL-Hcy/D-Glu-treated HAECs. DAF-FM, 4-Amino-5-methylamino-2′,7′-difluorescein; CTsiRNA, control siRNA; HG, hyperglycemia; HHcy, hyperhomocysteinemia; μ-calpsiRNA, μ-calpain siRNA.
(§2) HAECs treated with or without DL-Hcy and/or D-Glu for 48 hrs were stained with 4-Amino-5-Methylamino-2′,7′-Difluorofluorescein (DAF-FM). To explore the role of calpain, especially μ-calpain, the DL-Hcy/D-Glu-treated HAECs were also treated with MDL28170 (MDL, 20 μmol/L) and μ-calpain siRNA, respectively. HAECs treated with L-NAME (100 μmol/L) for 1 hr before DAF-FM staining were used as negative controls. eNOS activity in HAECs was determined by measuring the conversion of ^3H-Arg to ^3H-citrulline in intact cells as previous described (Jiang et al., 2005, Arterioscl Throm Vas 25:2515-2521).

In the next assay the target is T1, eNOS (Homo sapiens, UniProt P29474).
T1 construct: endogenous in cells; host or cells: HAECs (human aortic endothelial cells)
T1 sequence (P29474 2-1203 limits assumed): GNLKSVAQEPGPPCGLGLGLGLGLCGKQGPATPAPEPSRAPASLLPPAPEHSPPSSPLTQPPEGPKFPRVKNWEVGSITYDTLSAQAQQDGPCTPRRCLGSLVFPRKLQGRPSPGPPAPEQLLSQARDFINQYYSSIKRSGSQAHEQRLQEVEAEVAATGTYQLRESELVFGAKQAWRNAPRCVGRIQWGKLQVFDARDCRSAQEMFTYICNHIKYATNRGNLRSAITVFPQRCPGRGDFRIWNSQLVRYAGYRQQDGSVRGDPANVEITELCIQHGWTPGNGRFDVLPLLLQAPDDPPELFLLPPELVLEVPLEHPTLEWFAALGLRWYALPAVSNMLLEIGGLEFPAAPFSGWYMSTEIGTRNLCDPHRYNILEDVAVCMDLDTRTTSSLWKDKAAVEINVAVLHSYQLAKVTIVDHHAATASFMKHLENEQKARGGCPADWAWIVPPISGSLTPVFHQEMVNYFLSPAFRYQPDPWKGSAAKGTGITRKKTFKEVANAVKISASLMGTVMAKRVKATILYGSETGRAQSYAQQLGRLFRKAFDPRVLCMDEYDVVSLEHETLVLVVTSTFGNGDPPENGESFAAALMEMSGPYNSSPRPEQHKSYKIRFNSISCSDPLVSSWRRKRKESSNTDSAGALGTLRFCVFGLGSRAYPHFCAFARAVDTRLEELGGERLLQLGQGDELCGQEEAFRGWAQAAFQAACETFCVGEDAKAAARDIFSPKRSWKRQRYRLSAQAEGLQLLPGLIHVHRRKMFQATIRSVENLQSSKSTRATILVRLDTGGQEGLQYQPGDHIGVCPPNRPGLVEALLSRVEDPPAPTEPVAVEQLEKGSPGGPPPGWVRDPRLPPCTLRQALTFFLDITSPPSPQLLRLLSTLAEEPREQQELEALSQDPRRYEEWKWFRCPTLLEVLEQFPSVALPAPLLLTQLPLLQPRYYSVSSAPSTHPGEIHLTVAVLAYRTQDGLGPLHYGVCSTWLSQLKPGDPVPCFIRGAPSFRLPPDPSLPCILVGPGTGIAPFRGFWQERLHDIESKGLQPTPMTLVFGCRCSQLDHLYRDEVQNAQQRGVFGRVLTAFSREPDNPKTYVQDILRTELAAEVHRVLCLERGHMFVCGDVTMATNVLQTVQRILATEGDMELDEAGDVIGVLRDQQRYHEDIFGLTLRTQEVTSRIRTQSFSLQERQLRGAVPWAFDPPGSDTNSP
The experiment in a line: eNOS activity in intact HAECs (3H-Arg to 3H-citrulline conversion). The settings on record: HAECs; L-NAME 100 μmol/L added in the last hour. The class given is cell-based. Here is the method:
as §1, §2

Residues, ends and D or L forms follow the SMILES beside them.

Turning to `CN(C)CCCn1cc(C2=C(c3c[nH]c4ccccc34)C(=O)NC2=O)c2ccccc21` [GFX, GF109203X], the “HHcy/HG-induced eNOS-pThr495” value with eNOS-pThr495 is recorded as “completely rescued”.

On to `Nc1nc2ncc(CNc3ccc(C(=O)N[C@@H](CCC(=O)O)C(=O)O)cc3)nc2c(=O)[nH]1` [Folic acid], for which the “endothelium-dependent vascular relaxation responses to ACh” value in the assay with aorta of db/db mice is “improved”.

As for `COc1cc(C(C)=O)ccc1O` [apocynin], the “endothelium-dependent vascular relaxation to ACh” value in the assay with mouse thoracic aorta was “significantly improved”.

Regarding `CSCC[C@@H](C=O)NC(=O)[C@H](CC(C)C)NC(=O)[C@H](CC(C)C)NC(C)=O` [ALLM, N-Acetyl-Leu-Leu-Met-CHO] (Ac-Leu-Leu-Met-aldehyde), the “aortic endothelium-dependent vascular relaxation to ACh” value with mouse thoracic aorta was “markedly improved”.

On to `CC1(C)CC(O)CC(C)(C)N1[O]` [Tempol], for which the “endothelium-dependent vascular relaxation to ACh” value in the assay on mouse thoracic aorta is listed as “significantly improved”.

As for “polyethylene glycol superoxide dismutase [PEG-SOD]”, in the assay on mouse thoracic aorta, the “endothelium-dependent vascular relaxation to ACh” value is listed as “significantly improved”. The “decrease of HHcy/HG-induced calpain activation” value in the assay on calpain worked out at 49%.

For the compound `COC(=O)[C@@H](N)CCCNC(=N)N[N+](=O)[O-]` [L-NAME, N^G-nitro-L-arginine methyl ester], in the assay on mouse thoracic aorta (aorta of all groups (Cbs+/+ and Cbs−/+, HHcy and/or HG), L-NAME 100 μmol/L, 30 min), the “vascular relaxation response to ACh” value was “completely abolished”. The same compound yielded an NO generation in the assay on NO production in HAECs of 5.7%. The compound further displayed an eNOS activity at eNOS of 10%.

With `CCCC[C@@H](C=O)NC(=O)[C@H](CC(C)C)NC(=O)OCc1ccccc1` [calpeptin], the “aortic endothelium-dependent vascular relaxation to ACh” value with mouse thoracic aorta is “markedly improved”.
